Experimental data from patent US9945860B2, “Nicotinamide adenine dinucleotide indicators, methods of preparation and application thereof” (East China University of Science and Technology, priority 2011, dated 2018).
Several values for one entry are separate records, joined by “and”; a condition that tells them apart may be missing. Identical values can stand only once.

What was measured:
[1] = test system: NADH levels in mitochondria; experiment: Real-time detection of mitochondrial NADH when respiratory chain complexes are inhibited; assay type: cell-based; details: for fluorescence (ex 485, em 528) of the sensor in mitochondria: treated for 30 min
Description: NADH that produced via glycolysis pathway and tricarboxylic acid cycle pathway will be oxidized by the oxidative phosphorylation pathway of mitochondrial respiratory chain, and then generate ATP to provide energy for various life activities. Fluorescent sensors for nicotinamide adenine dinucleotide were used to measure changes of NADH levels in mitochondria when various complexes in the respiratory chain were inhibited. […] Time interval between the figures was 1 min. The cells were observed before and after treatment under a laser scanning confocal microscope (Nikon, Japan). […].

293FT cells = experiment: Real-time measurement of intracellular NADH after adding external NADH to the culture medium; assay type: cell-based
Description: As described in Example 7, the fluorescence sensors for reduced nicotinamide adenine dinucleotide were expressed in different subcellular organelles of 293FT cells. […] Following the addition of external NADH into cell culture medium, transfected cells were observed under a laser scanning confocal microscope (Nikon, Japan). […] As to the control group in comparison, the cpYFP presented alone was not affected by extra NADH either. Therefore, effects of pH and the variation in cpYFP per se by environmental changes could be excluded. This series of sensors were further utilized to detect influences of extra NADH on other organelles, and observed that extra NADH could also increase the NADH levels in nucleus and mitochondria, the results for nucleus study are shown in FIG. 8-1B, and those for mitochondria study are shown in FIG. 8-1C.

[2] = test system: NADH levels in different subcellular compartments; experiment: Real-time measurement of NADH levels regulated by glucose, pyruvate and lactate; assay type: cell-based
Description: Glycolysis is an important pathway of producing NADH and it plays a vital role in regulating intracellular NADH levels. The nicotinamide adenine dinucleotide fluorescent sensors were used to test how several important metabolites in this pathway, glucose, pyruvate and lactate, would influence the NADH levels in different subcellular compartments. […] As products of glycolysis pathway, pyruvate and lactate are presented in the cytoplasm with a dynamic balance between them. At increased intracellular levels of pyruvate, lactate dehydrogenase consumes NADH and produces lactate and NAD^+, and in turn, leads to the decrease of NADH levels in cytoplasm. At increased intracellular levels of lactate, lactate dehydrogenase consumes NAD^+ and produces pyruvate and NADH, and in turn, leads to the increase of NADH levels in cytoplasm.

[3] = Spectral characteristics of fluorescent sensors (excitation and emission spectra); assay type: physicochemical; details: 10 μM sensor in 100 mM KPi, pH7.4
Description: The fluorescent sensors that prepared above were dissolved in assay buffer (100 mM KPi, pH7.4) to formulate fluorescent sensor solutions to a final concentration of 10 μM. Then their absorption spectra were measured using a Multi-functional Fluorescence Microplate Reader (Synergy2, Biotek) (FIG. 3A).
Their excitation and emission spectra were determined using a fluorescence spectrophotometer (Cary Eclipse Fluorescence spectrophotometer, Varian) (FIG. 3B).

H1299 tumor cells = experiment: In vivo imaging of NADH metabolism in H1299-superFrex tumors; set-up: species or system nude mice; details: 300 μl sodium pyruvate (100 mM) via the tail vein
Description: H1299 tumor cells were transfected with pcDNA3.1-cyt-superFrex, and then screened under Hygromycin B for 2 weeks. […] Male nude mice of 5-6 weeks old were subcutaneously injected with 200 μl of H1299-superFrex cell suspension (1.0×10^7 cells) into their right armpits and housed for 3-4 weeks at SPF Animal facility, tumors in the nude mice grew to 0.6-1.0 cm. The nude mice were anaesthetized and then injected with 300 μl of sodium pyruvate (100 mM) via the tail vein. Effects of the agent on tumor metabolism were observed immediately with Kodak multifunctional vivo imaging system (Carestream, USA). […] Over time, pyruvate was gradually consumed metabolically, and the ratio of NADH/NAD^+ in tumor cells resumed the initial level (FIG. 12-C). In summary, superFrex, the fluorescent sensor for reduced/oxidized nicotinamide adenine dinucleotide ratio, works well in real-time monitoring of the NADH metabolism in tumor tissues.

O=C(O)CC[N+](=O)[O-] [3-NP]
NADH levels in mitochondria ([1]; NADH sensor expressed in mitochondria, 6-minute profile): greatly decline

NC(=O)C1=CN([C@@H]2O[C@H](COP(=O)(O)OP(=O)(O)OC[C@H]3O[C@@H](n4cnc5c(N)ncnc54)[C@H](O)[C@@H]3O)[C@@H](O)[C@H]2O)C=CC1 [NADH, reduced nicotinamide adenine dinucleotide]
intracellular NADH levels (293FT cells; external NADH added to medium): immediate increase
NADH levels in nucleus and mitochondria (293FT cells; extra NADH): increase

CC(O)C(=O)O (stereo not drawn) [lactate]
NADH levels in cytoplasm [2]: rapid increase

C=C(C)[C@H]1Cc2c(ccc3c2O[C@@H]2COc4cc(OC)c(OC)cc4[C@@H]2C3=O)O1 [rotenone]
fluorescence (ex 485, em 528) of the sensor in mitochondria [1]: increased

F-rex2: sensor from pRSETb-ydiH(189)-YFP-ydiH(190), Thermus aquaticus YdiH with cpYFP inserted, SEQ ID NO: 8
emission peak [3]: 518 nm
excitation peaks [3]: 410 nm and 500 nm
intensity of the latter excitation peak relative to the former [3]: about half

antimycin A
fluorescence (ex 485, em 528) of the sensor in mitochondria [1]: increased

cpYFP: circular permutation yellow fluorescent protein, control protein, SEQ ID NO: 22
control tumor cells expressing cpYFP, change caused by pyruvate (H1299 tumor cells): no difference
effect of extra NADH on control protein presented alone (293FT cells; 293FT cells): not affected
control protein expressed in mitochondria upon 3-NP treatment ([1]; 6-minute profile): no obvious change
